{
  "source": "patent US20230141887A1",
  "about": "“CRYSTAL FORM OF DIAZASPIROPYRAN COMPOUND” (MEDSHINE DISCOVERY INC., priority 2020, published 2023)",
  "key": {"FLT3(R834Q)": {"biological_target": "T1, FLT3(R834Q) (Homo sapiens, UniProt P36888, R834Q)", "T1 sequence (P36888 27-993 R834Q)": "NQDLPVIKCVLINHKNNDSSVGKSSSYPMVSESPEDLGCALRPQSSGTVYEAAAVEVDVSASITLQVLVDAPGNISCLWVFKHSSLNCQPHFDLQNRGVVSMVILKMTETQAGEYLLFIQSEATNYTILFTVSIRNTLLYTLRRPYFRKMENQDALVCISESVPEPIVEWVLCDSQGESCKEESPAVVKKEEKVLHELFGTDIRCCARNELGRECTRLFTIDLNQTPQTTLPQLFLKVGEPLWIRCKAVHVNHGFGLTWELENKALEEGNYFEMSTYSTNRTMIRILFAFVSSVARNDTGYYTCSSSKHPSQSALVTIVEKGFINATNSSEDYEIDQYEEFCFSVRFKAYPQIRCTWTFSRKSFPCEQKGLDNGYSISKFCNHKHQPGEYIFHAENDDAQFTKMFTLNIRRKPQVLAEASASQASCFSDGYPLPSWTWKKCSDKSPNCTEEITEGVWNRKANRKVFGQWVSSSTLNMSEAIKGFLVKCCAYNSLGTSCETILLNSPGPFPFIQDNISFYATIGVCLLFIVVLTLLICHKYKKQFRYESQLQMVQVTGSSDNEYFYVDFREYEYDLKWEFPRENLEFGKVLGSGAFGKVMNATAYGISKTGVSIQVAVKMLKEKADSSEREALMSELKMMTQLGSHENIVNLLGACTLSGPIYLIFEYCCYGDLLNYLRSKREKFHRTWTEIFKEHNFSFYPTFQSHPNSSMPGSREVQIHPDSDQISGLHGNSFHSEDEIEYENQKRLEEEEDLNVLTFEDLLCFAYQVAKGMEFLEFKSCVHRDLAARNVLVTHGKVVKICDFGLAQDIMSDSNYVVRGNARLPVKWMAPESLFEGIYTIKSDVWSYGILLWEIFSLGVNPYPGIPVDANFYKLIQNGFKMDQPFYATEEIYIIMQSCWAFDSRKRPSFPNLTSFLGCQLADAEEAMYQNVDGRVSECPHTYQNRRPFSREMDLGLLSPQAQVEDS", "format": "binding"}, "FLT3(D835V)": {"biological_target": "T2, FLT3(D835V) (Homo sapiens, UniProt P36888, D835V)", "T2 sequence (P36888 27-993 D835V)": "T1 sequence (P36888 27-993 R834Q) with Q808R, D809V", "format": "binding"}},
  "note": "Where a chain is given by its changes, count along the chain named.",
  "data": [
    {"smiles": "CCc1nc(C(N)=O)c(Nc2ccc(N3CCC4(CCN(C)CC4)CC3)c(C)c2)nc1NC1CCOCC1.O=C(O)C(F)(F)F", "values": [
      {"measurement": "Kd", "setting": "FLT3(R834Q)", "result": 0.031, "unit": "µM"},
      {"measurement": "Kd", "setting": "FLT3(D835V)", "result": 0.00023, "unit": "µM"}
    ]}
  ]
}
